This note sets out measurements from patent US10053431B2, “Tetrahydro-benzodiazepinones” (priority 2013, dated 2018).

The target in experiment [1] is BIR2 domain of XIAP (Homo sapiens (Human), UniProt P98170, C202A/C213G). The experiment is described as follows: TR-FRET assay for BIR2 (inhibition of binding of XIAP BIR2 domain to SMAC-derived Peptide A). The following applies: 6x His-tagged BIR2 domain (aa 124-240 of XIAP) 10 nM, Peptide A 20 nM, TR-FRET; read-out: IC50 BIR2. In general terms: TR-FRET usually uses a lanthanide donor and a delayed reading to cut background.
Chain of BIR2 domain of XIAP (P98170 124-240 with tags or gaps C202A/C213G limits assumed): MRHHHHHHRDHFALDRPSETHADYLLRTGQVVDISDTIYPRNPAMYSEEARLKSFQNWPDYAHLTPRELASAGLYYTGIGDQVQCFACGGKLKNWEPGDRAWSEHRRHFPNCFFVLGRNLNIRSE

Experiment [2] deals with BIR3 domain of XIAP (Homo sapiens (Human), UniProt P98170). The experiment can be described thus: TR-FRET assay for BIR3 (inhibition of binding of XIAP BIR3 domain to SMAC-derived Peptide A).
Chain of BIR3 domain of XIAP (P98170 241-356 with tags or gaps limits assumed): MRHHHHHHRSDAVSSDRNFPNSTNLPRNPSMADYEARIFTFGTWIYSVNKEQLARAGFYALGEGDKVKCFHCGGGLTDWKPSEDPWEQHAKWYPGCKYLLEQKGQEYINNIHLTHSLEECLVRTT
Setting [3] is: 6x His-tagged BIR3 domain (aa 241-356 of XIAP) 10 nM, Peptide A 20 nM, TR-FRET.

Structures can show the parent of a compound that is named as a salt. Where two headings read alike, the source gives them in different places.

Take `CN[C@@H](C)C(=O)N[C@H]1CN(C(=O)c2cc(OC)c(OC)c(OC)c2)c2ccccc2N(Cc2c(C)ccc3ccccc23)C1=O` [Example 13g]: the results for the IC50 in experiment [1] and in experiment [2] (setting [3]) were 481 nM and above 54800 nM, respectively.

With `CN[C@@H](C)C(=O)N[C@H]1CN(C(=O)CCNC(=O)OCC2c3ccccc3-c3ccccc32)c2ccccc2N(Cc2c(OC)ccc3cc(C(=O)OC)ccc23)C1=O` [Example 13r], the IC50 – broadly, the concentration at which inhibition is half-maximal – came to 17 nM in experiment [1] and 46700 nM in experiment [2] (setting [3]).

For the molecule `CN[C@@H](C)C(=O)N[C@H]1CN(C(=O)CCC(=O)O)c2ccccc2N(Cc2c(C)ccc3ccccc23)C1=O` [Example 16, 4-[(S)-3-((S)-2-Methylamino-propionylamino)-5-(2-methyl-naphthalen-1-ylmethyl)-4-oxo-2,3,4,5-tetrahydro-benzo[b][1,4]diazepin-1-yl]-4-oxo-butyric acid hydrochloride], the IC50 in experiment [1] was 126 nM; in experiment [2] (setting [3]), above 54800 nM.

Consider `CNC(=O)N1C[C@H](NC(=O)[C@H](C)NC)C(=O)N(Cc2c(C)ccc3ccccc23)c2ccccc21` [Example 17, (S)-3-((S)-2-Methylamino-propionylamino)-5-(2-methyl-naphthalen-1-ylmethyl)-4-oxo-2,3,4,5-tetrahydro-benzo[b][1,4]diazepine-1-carboxylic acid methylamide hydrochloride], for which the IC50 in experiment [1] is 1430 nM; in experiment [2] it was above 54800 nM.

As to `CN[C@@H](C)C(=O)N[C@H]1CN(S(=O)(=O)CS(C)(=O)=O)c2ccccc2N(Cc2c(C)ccc3ccccc23)C1=O` [Example 18, (S)—N—[(S)-5-Methanesulfonylmethanesulfonyl-1-(2-methyl-naphthalen-1-ylmethyl)-2-oxo-2,3,4,5-tetrahydro-1H-benzo[b][1,4]diazepin-3-yl]-2-methylamino-propionamide trifluoroacetate], the IC50 in experiment [1] was 590 nM; in experiment [2] (setting [3]), above 54800 nM.

As to `CN[C@@H](C)C(=O)N[C@H]1CN(S(C)(=O)=O)c2ccccc2N(Cc2c(C)ccc3ccccc23)C1=O` [Example 19, (S)—N—[(S)-5-methanesulfonyl-1-(2-methyl-naphthalen-1-ylmethyl)-2-oxo-2,3,4,5-tetrahydro-1H-benzo[b][1,4]diazepin-3-yl]-2-methylamino-propionamide hydrochloride], the IC50 in experiment [1] was 620 nM; in experiment [2] (setting [3]), above 54800 nM.

For `CN[C@@H](C)C(=O)N[C@H]1CN(C(=O)OC)c2ccccc2N(Cc2c(C)ccc3ccccc23)C1=O` [Example 20, ((S)-3-((S)-2-Methylamino-propionylamino)-5-(2-methyl-naphthalen-1-ylmethyl)-4-oxo-2,3,4,5-tetrahydro-benzo[b][1,4]diazepine-1-carboxylic acid methyl ester hydrochloride], the IC50 is 588 nM in experiment [1] and above 54800 nM in experiment [2] (setting [3]).

Turning to `CN[C@@H](C)C(=O)N[C@H]1CN(C(=O)c2ccc(C(C)=O)cc2)c2ccccc2N(CCc2cccc3ccccc23)C1=O` [Example 40, (S)—N—((S)-5-(4-acetylbenzoyl)-1-(2-(naphthalen-1-yl)ethyl)-2-oxo-2,3,4,5-tetrahydro-1H-benzo[b][1,4]diazepin-3-yl)-2-(methylamino)propanamide], the IC50 in experiment [1] was 173 nM; in experiment [2] (setting [3]), 7420 nM.

As to `CN[C@@H](C)C(=O)N[C@H]1CN(C(=O)c2ccc(NC(C)=O)cc2)c2ccccc2N(Cc2c(OC)ccc3ccccc23)C1=O` [Example 42, (S)—N—[(S)-5-(4-Acetylamino-benzoyl)-1-(2-methoxy-naphthalen-1-ylmethyl)-2-oxo-2,3,4,5-tetrahydro-1H-benzo[b][1,4]diazepin-3-yl]-2-methylamino-propionamide hydrochloride], the IC50 in experiment [1] was 37 nM; in experiment [2] (setting [3]), above 54800 nM.

As to `CN[C@@H](C)C(=O)N[C@H]1CN(C(=O)c2ccc(C(C)=O)cc2)c2ccccc2N(Cc2c(OC)ccc3cc(C(=O)OC)ccc23)C1=O` [Example 43, 5-[(S)-5-(4-Acetyl-benzoyl)-3-((S)-2-methylamino-propionylamino)-2-oxo-2,3,4,5-tetrahydro-benzo[b][1,4]diazepin-1-ylmethyl]-6-methoxy-naphthalen-2-carboxylic acid methyl ester hydrochloride], the IC50 turned out to be 57 nM in experiment [1] and 44100 nM in experiment [2] (setting [3]).

`CN[C@@H](C)C(=O)N[C@H]1CN(C(=O)c2ccc(C(C)=O)cc2)c2ccccc2N(Cc2c(OC)ccc3cc(C(=O)O)ccc23)C1=O` [Example 44, 5-[[(3S)-1-(4-acetylbenzoyl)-3-[[(2S)-2-(methylamino)propanoyl]amino]-4-oxo-2,3-dihydro-1,5-benzodiazepin-5-yl]methyl]-6-methoxy-naphthalene-2-carboxylic acid; hydrochloride]: the IC50 in experiment [1] is 16 nM; in experiment [2] (setting [3]) it was 17400 nM.

Regarding `CN[C@@H](C)C(=O)N[C@H]1CN(C(=O)CCCC(C)=O)c2ccccc2N(Cc2c(OC)ccc3cc(C(=O)O)ccc23)C1=O` [Example 47, 6-Methoxy-5-[(S)-3 ((S)-2-methylamino-propionylamino)-2-oxo-5-(5-oxo-hexanoyl)-2,3,4,5-tetrahydro-benzo[b][1,4]diazepin-1-ylmethyl]-naphthalene-2-carboxylic acid hydrochloride], the results for the IC50 in experiment [1] and in experiment [2] (setting [3]) were 20 nM and 44600 nM, respectively.

As for `CN[C@@H](C)C(=O)N[C@H]1CN(C(=O)CCCNC(=O)OCC2c3ccccc3-c3ccccc32)c2ccccc2N(Cc2c(OC)ccc3cc(C(=O)OC)ccc23)C1=O` [Example 48, 5-[(S)-5-[4-(9H-Fluoren-9-ylmethoxycarbonylamino)-butyryl]-3-((S)-2-methylamino-propionylamino)-2-oxo-2,3,4,5-tetrahydro-benzo[b][1,4]diazepin-1-ylmethyl]-6-methoxy-naphthalene-2-carboxylic acid methyl ester hydrochloride], the IC50 in experiment [1] turned out to be 23 nM; in experiment [2] (setting [3]), 33200 nM.

Consider `CN[C@@H](C)C(=O)N[C@H]1CN(C(=O)CCCN)c2ccccc2N(Cc2c(OC)ccc3cc(C(=O)OC)ccc23)C1=O` [Example 49, 5-[(S)-5-(4-Amino-butyryl)-3-((S)-2-methylamino-propionylamino)-2-oxo-2,3,4,5-tetrahydro-benzo[b][1,4]diazepin-1-ylmethyl]-6-methoxy-naphthalene-2-carboxylic acid methyl ester hydrochloride], for which the figures for the IC50 in experiment [1] and in experiment [2] (setting [3]) were 127 nM and above 54800 nM, respectively.

For the molecule `CN[C@@H](C)C(=O)N[C@H]1CN2C(=O)CCCNC(=O)c3ccc4c(c(OC)ccc4c3)CN(C1=O)c1ccccc12` [Example 51, Cyclic-5-[(S)-5-(4-Amino-butyryl)-3-((S)-2-methylamino-propionylamino)-2-oxo-2,3,4,5-tetrahydro-benzo[b][1,4]diazepin-1-ylmethyl]-6-methoxy-naphthalene-2-carboxylic amide hydrochloride], the IC50 was found to be 58 nM in experiment [1] and 42800 nM in experiment [2] (setting [3]).

With `CN[C@@H](C)C(=O)N[C@H]1CN2C(=O)CCCCNC(=O)c3ccc4c(c(OC)ccc4c3)CN(C1=O)c1ccccc12` [Example 54, Cyclic-5-[(S)-5-(5-amino-pentanoyl)-3-((S)-2-methylamino-propionylamino)-2-oxo-2,3,4,5-tetrahydro-benzo[b][1,4]diazepin-1-ylmethyl]-6-methoxy-naphthalene-2-carboxylic amide hydrochloride], the IC50 in experiment [1] was found to be 18 nM; in experiment [2] (setting [3]), 16000 nM.

For `CN[C@@H](C)C(=O)N[C@H]1CN(C(=O)c2ccc(NC(=O)OCC3c4ccccc4-c4ccccc43)cc2)c2ccccc2N(Cc2c(OC)ccc3cc(C(=O)OC)ccc23)C1=O` [Example 55, 5-[(S)-5-[4-(9H-Fluoren-9-ylmethoxycarbonylamino)-benzoyl]-3-((S)-2-methylamino-propionylamino)-2-oxo-2,3,4,5-tetrahydro-benzo[b][1,4]diazepin-1-ylmethyl]-6-methoxy-naphthalene-2-carboxylic acid methyl ester hydrochloride], the IC50 in experiment [1] is 22 nM; in experiment [2] (setting [3]) it was above 54800 nM.

As for `CN[C@@H](C)C(=O)N[C@H]1CN(C(=O)c2ccc(N)cc2)c2ccccc2N(Cc2c(OC)ccc3cc(C(=O)O)ccc23)C1=O` [Example 57, 5-(((S)-5-(4-aminobenzoyl)-3-((S)-2-(methylamino)propanamido)-2-oxo-2,3,4,5-tetrahydro-1H-benzo[b][1,4]diazepin-1-yl)methyl)-6-methoxy-2-naphthoic acid hydrochloride], the IC50 worked out at 7 nM in experiment [1] and 20800 nM in experiment [2] (setting [3]).

For the molecule `CN[C@@H](C)C(=O)N[C@H]1CN2CCNC(=O)c3ccc4c(c(OC)ccc4c3)CN(C1=O)c1ccccc12` [Example 59, Cyclic-5-[(S)-5-(2-Amino-ethyl)-3-((S)-2-methylamino-propionylamino)-2-oxo-2,3,4,5-tetrahydro-benzo[b][1,4]diazepin-1-ylmethyl]-6-methoxy-naphthalene-2-carboxylic amide hydrochloride], the IC50 in experiment [1] is 3780 nM; in experiment [2] (setting [3]), 31400 nM.

Consider `CN[C@@H](C)C(=O)N[C@H]1CN(C(=O)CCCCC(=O)O)c2ccccc2N(Cc2c(C)ccc3ccccc23)C1=O` [Example 60, 6-((S)-3-((S)-2-(methylamino)propanamido)-5-((2-methylnaphthalen-1-yl)methyl)-4-oxo-2,3,4,5-tetrahydro-1H-benzo[b][1,4]diazepin-1-yl)-6-oxohexanoic acid hydrochloride], for which the IC50 in experiment [1] was 166 nM; in experiment [2] (setting [3]), above 54800 nM.

Regarding `CN[C@@H](C)C(=O)N[C@H]1CN(C(=O)CCN)c2ccccc2N(Cc2c(OC)ccc3cc(C(=O)OC)ccc23)C1=O` [Example 61, 5-[(S)-5-(3-Amino-propionyl)-3-((S)-2-methylamino-propionylamino)-2-oxo-2,3,4,5-tetrahydro-benzo[b][1,4]diazepin-1-ylmethyl]-6-methoxy-naphthalene-2-carboxylic acid methyl ester hydrochloride], the half-maximal inhibitory concentration (IC50) in experiment [1] is 72 nM; in experiment [2] (setting [3]) it was above 54800 nM.
